Results on 22 compounds are retold here after ChEMBL document CHEMBL6096733, “Structure-Based Virtual Screening Identifies 2-Arylthiazole-4-Carboxylic Acids as a Novel Class of Nanomolar Affinity Ligands for the CaMKIIα Hub Domain” (J Med Chem, 2025).

As usually defined, the ΔTm is the change in melting temperature against a reference sample.

For data set [1], the target named is T1, Calcium/calmodulin-dependent protein kinase type II subunit alpha (Rattus norvegicus, UniProt P11275). In words: Inhibition of […] binding to CaMKIIalpha in rat brain cortical membrane assessed as inhibition constant incubated for 1 hrs by TopCount NXT microplate scintillation counter analysis. It is filed as cell membranes, Cortex. Conditions: read-out: Ki.
T1 sequence (P11275 whole entry): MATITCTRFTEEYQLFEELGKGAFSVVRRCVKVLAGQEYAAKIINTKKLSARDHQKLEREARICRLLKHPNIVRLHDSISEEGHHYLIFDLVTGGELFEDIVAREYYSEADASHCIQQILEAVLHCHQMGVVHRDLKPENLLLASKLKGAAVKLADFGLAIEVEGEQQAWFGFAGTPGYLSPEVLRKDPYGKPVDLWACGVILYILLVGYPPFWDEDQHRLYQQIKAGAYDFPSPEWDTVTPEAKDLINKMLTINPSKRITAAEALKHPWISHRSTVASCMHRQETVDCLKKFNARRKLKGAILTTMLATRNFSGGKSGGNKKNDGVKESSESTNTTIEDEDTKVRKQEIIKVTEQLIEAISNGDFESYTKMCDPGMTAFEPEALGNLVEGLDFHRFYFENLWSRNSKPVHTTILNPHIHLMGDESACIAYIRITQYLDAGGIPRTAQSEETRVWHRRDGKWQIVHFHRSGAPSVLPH

Data set [2] can be described thus: Metabolic stability in pooled CD-1 mouse liver microsomes assessed as parent compound remaining at 10 uM measured immediately in presence of NADPH regeneration system by LC-MS analysis. Particulars: read-out: Stability. It is filed as ADME, Microsome.
A short description of data set [3]: Metabolic stability in pooled human plasma assessed as parent compound remaining at 20 uM measured after 120 mins by LC-MS analysis. It is filed as ADME, cell-free. Conditions: read-out: Stability.
Data set [4] can be described thus: Metabolic stability in pooled CD-1 mouse liver microsomes assessed as parent compound remaining at 10 uM measured after 60 mins in presence of NADPH regeneration system by LC-MS analysis. It is filed as ADME, Microsome. Conditions: read-out: Stability.
A short description of data set [5]: Prodrug conversion in mouse brain assessed as 2-(2,6-dichlorophenyl)thiazole-4-carboxylic acid release at 10 mg/kg, po measured after 0.5 hrs by LC-MS/MS analysis. It is filed as ADME, organism-based. Conditions: in vivo.
A short description of data set [6]: Prodrug conversion in mouse plasma assessed as 2-(2,6-dichlorophenyl)thiazole-4-carboxylic acid release at 10 mg/kg, po measured after 0.5 hrs by LC-MS/MS analysis. It is filed as ADME, organism-based. Conditions: in vivo.
The nature of data set [7]: Metabolic stability in pooled CD-1 mouse liver microsomes assessed as parent compound remaining at 10 uM measured after 30 mins in presence of NADPH regeneration system by LC-MS analysis. It is filed as ADME, Microsome. Conditions: read-out: Stability.
A short description of data set [8]: Metabolic stability in pooled human plasma assessed as parent compound remaining at 20 uM measured immediately by LC-MS analysis. It is filed as ADME, cell-free. Particulars: read-out: Stability.
Data set [9] can be described thus: Chemical stability of compound in phosphate buffer solution at pH 7.4. It is filed as physicochemical.
Data set [10] is described as follows: Metabolic stability in pooled human plasma assessed as parent compound remaining at 20 uM measured after 30 mins by LC-MS analysis. It is filed as ADME, cell-free. Conditions: read-out: Stability.
Data set [11] is described as follows: Metabolic stability in pooled CD-1 mouse liver microsomes assessed as parent compound remaining at 10 uM measured after 15 mins in presence of NADPH regeneration system by LC-MS analysis. It is filed as ADME, Microsome. Particulars: read-out: Stability.
A short description of data set [12]: Metabolic stability in pooled human plasma assessed as parent compound remaining at 20 uM measured after 60 mins by LC-MS analysis. It is filed as ADME, cell-free. Conditions: read-out: Stability.
The target in data set [13] is T1, Calcium/calmodulin-dependent protein kinase type II subunit alpha. In words: Inhibition of [3H]NCS-382 binding to CaMKIIalpha in rat brain cortical membrane assessed as inhibition constant incubated for 1 hrs by TopCount NXT microplate scintillation counter analysis. It is filed as cell membranes, Cortex.
Data set [14] addresses T2, Calcium/calmodulin-dependent protein kinase type II subunit alpha (Homo sapiens, UniProt Q9UQM7). In words: Induction of thermal stabilization of recombinant wildtype human CAMKIIalpha hub domain (345 to 475 residues) extracted from Escherichia coli BL21 (DE3) cells assessed as change in melting temperature at 0.625 to 320 microM by differential scanning fluorimetric analysis. Particulars: dose 0.625-320 µM. (In general: Differential scanning fluorimetry follows unfolding on heating by fluorescence.)

Data set [15] concerns the target T2, Calcium/calmodulin-dependent protein kinase type II subunit alpha. Briefly: Induction of thermal stabilization of recombinant wildtype human CAMKIIalpha hub domain (345 to 475 residues) extracted from Escherichia coli BL21 (DE3) cells by differential scanning fluorimetric analysis. Conditions: dose 0.625-320 µM.
A short description of data set [16]: Drug concentration in mouse plasma at 10 mg/kg, po measured after 0.5 hrs by LC-MS/MS analysis. It is filed as ADME, organism-based.
A short description of data set [17]: Ratio of drug concentration in mouse brain to plasma at 10 mg/kg, po measured after 0.5 hrs by LC-MS/MS analysis. It is filed as ADME, organism-based. Particulars: brain and plasma, read-out: BPR.
Data set [18] can be described thus: Prodrug conversion in mouse assessed as ratio of 2-(2,6-dichlorophenyl)thiazole-4-carboxylic acid concentration in brain to plasma at 10 mg/kg, po measured after 0.5 hrs by LC-MS/MS analysis. It is filed as ADME, organism-based.
The nature of data set [19]: Prodrug conversion in mouse plasma assessed as 2-(2,6-dichlorophenyl)thiazole-4-carboxylic acid concentration at 10 mg/kg, po measured after 0.5 hrs by LC-MS/MS analysis. It is filed as ADME, organism-based. Particulars: in vivo.
A short description of data set [20]: Prodrug conversion in mouse assessed as ratio of unbound 2-(2,6-dichlorophenyl)thiazole-4-carboxylic acid concentration in brain to plasma at 10 mg/kg, po measured after 0.5 hrs by LC-MS/MS analysis. It is filed as ADME, organism-based.
A short description of data set [21]: Prodrug conversion in mouse brain assessed as 2-(2,6-dichlorophenyl)thiazole-4-carboxylic acid concentration at 10 mg/kg, po measured after 0.5 hrs by LC-MS/MS analysis. It is filed as ADME, organism-based. Particulars: in vivo.
Data set [22] in a line: Drug concentration in mouse brain at 10 mg/kg, po measured after 0.5 hrs by LC-MS/MS analysis. It is filed as ADME, organism-based. Particulars: read-out: Ct.
Data set [23] is described as follows: Ratio of unbound brain to plasma drug concentration in mouse at 10 mg/kg, po measured after 0.5 hrs by LC-MS/MS analysis. It is filed as ADME, organism-based. Conditions: brain and plasma, read-out: K(p,uu,brain).

T2 sequence (Q9UQM7 whole entry, the tested form may be a part): as the sequence (P11275 whole entry) above, with N324S counted along it

Regarding `COc1ccc(-c2nc(C(=O)O)cs2)cc1`, the Ki in data set [1] was determined as 7.2 µM.
Same read-out and setting: under `O=C(O)c1csc(-c2c(C(F)(F)F)cccc2C(F)(F)F)n1` stands greater than 10 µM; under `O=C(O)Cc1csc(-c2cccc3ccccc23)n1`, 9.9 µM.
With `CC(C)(C)COC(=O)c1csc(-c2c(Cl)cccc2Cl)n1`, the remaining at 0 min, 10 µM in [2] stood at 100%. The remaining at 2 h, 20 µM in data set [3] amounted to 63%. The remaining at 1 h, 10 µM in [4] was 59%. Also, the Drug metabolism result in [5] and in [6] was “metabolite_notdetected” each time. Also, the remaining at 0.5 h, 10 µM in data set [7] was determined as 75%. Also, the remaining at 0 min, 20 µM in data set [8] was determined as 100%. Further, the Stability entry in data set [9] is “Unstable”. Moreover, in data set [10], the remaining at 0.5 h, 20 µM amounted to 75%. Besides, the remaining at 0.25 h, 10 µM in [11] amounted to 84%. Further, the Ki in [1] is greater than 100 µM. For the same compound, the remaining at 1 h, 20 µM in data set [12] turned out to be 65%.
Turning to `CCc1ccc(-c2nc(C(=O)O)cs2)cc1`, the Ki in [1] turned out to be 5.4 µM.
Consider `O=C(O)c1csc(-c2ccccc2O)n1`, for which, in [13] (read-out: Ki), the Ki worked out at 8 µM.
For `O=C(O)Cc1csc(-c2ccccc2Cl)n1`, in data set [1], the Ki stood at 2 µM.
On the same count and under the same terms, then `O=C(O)c1csc(Cc2ccccc2)n1`, with 1.4 µM; and `O=C(O)c1csc(-c2c(F)cccc2F)n1`, with 0.71 µM; and `O=C(O)c1csc(-c2ccccc2)n1`, with 11.5 µM.
Regarding `O=C(O)c1csc(-c2ccccc2Br)n1`, the figures for the Ki in [13] (read-out: Ki) and in data set [13] (read-out: pKi (converted)) were 0.18 µM and 0.158 µM, respectively.
As to `O=C(O)c1csc(-c2ccc(O)cc2)n1`, in [1], the Ki came to 12.6 µM.
Regarding `Cc1cccc(C)c1-c1nc(C(=O)O)cs1`, the ΔTm in data set [14] was found to be 18 °C. Further, the Activity result in [15] is “Dose-dependent-effect”. Moreover, in [1], the Ki stood at 0.1 µM.
Regarding `O=C(O)c1csc(/C=C/c2ccccc2)n1`, the Ki in data set [1] was 3.2 µM.
Same read-out and setting: under `OC1(c2csc(-c3c(Cl)cccc3Cl)n2)COC1` stands greater than 100 µM; under `O=C(O)c1csc(-c2ccc(-c3ccccc3)cc2)n1`, 5 µM.
The same measure, in the same setting: under `O=C(O)Cc1csc(-c2c(Cl)cccc2Cl)n1` stands greater than 10 µM.
Still for that read-out and setting: then `Cc1ccccc1-c1nc(C(=O)O)cs1`, with 0.9 µM.
For the compound `COc1ccccc1-c1nc(C(=O)O)cs1`, the Ki in [13] (read-out: Ki) amounted to 3.1 µM.
In the case of `O=C(O)c1csc(-c2cccc3ccccc23)n1`, the Ki in data set [1] stood at 0.22 µM.
Still for that read-out and setting: under `O=C(O)c1csc(-c2ccccc2Cl)n1` stands 1 µM.
Turning to `CC(C)(C)OC(=O)c1csc(-c2c(Cl)cccc2Cl)n1`, the concentration at 0.5 h in [16] worked out at 137 ng/mL; in [22], 627 ng/g. Besides, the Kp at 0.5 h in [17] stood at 4.7. For the same compound, the remaining at 0 min, 10 µM in data set [2] was 100%. Besides, in [3], the remaining at 2 h, 20 µM is 70%. For the same compound, in data set [4], the remaining at 1 h, 10 µM stood at 45%. In data set [18], the BPR turned out to be 0.03. The remaining at 0.5 h, 10 µM in [7] stood at 53%. In addition, in data set [8], the remaining at 0 min, 20 µM was found to be 100%. The Stability result in [9] is recorded as “Unstable”. For the same compound, the Cp in data set [19] stood at 2154 ng/mL. Further, the remaining at 0.5 h, 20 µM in data set [10] is 78%. For the same compound, the “K(p,uu,brain)” value in data set [20] was determined as 0.13. For the same compound, the Ct in data set [21] came out at 54 ng/g. In addition, the remaining at 0.25 h, 10 µM in [11] worked out at 70%. Further, in data set [23], the Kp uu at 0.5 h came out at 0.49. In addition, in data set [1], the Ki came out at 56.4 µM. The remaining at 1 h, 20 µM in data set [12] amounted to 74%.
